Results reported in patent US20070178161A1, “Use of n-acetryl-d-glucosamine in treating and controlling non-specific inflammations caused by physical or chemical factors” (priority 2003, published 2007).

Legend:
burn models = assay: Burn test; assay type: in vivo, Wistar rats; settings: local application of solid powder, after 3 days, 10 rats per group (control: 2)
From the text: 20 Wistar rats were randomly divided into two groups, i.e., control group and test group. The rats of both two groups were made as burn models by dressing gauze with hot distilled water. The rats of the control group were not treated, while the rats of the test group were locally treated by applying a solid powder of the compound of formula (I). After 3 days, 8 rats of the test group formed scab, while only 2 rats of the control group formed scab wherein liquor puris still accumulated below the scab.

[1] = tested on: blunt torn thigh muscle tissue of hind limb; assay: Blunt tearing tests of animals; assay type: in vivo, Kunming mice; settings: 1 ml, after 7 days
Protocol: 30 Kunming mice were randomly divided into two groups, i.e., 10 mice in control group and 20 mice in test group. The mice of both two groups were treated by a blunt tearing method, wherein a non-specific injury occurred in blunt torn thigh muscle tissue of hind limb of mice. […] 10 mice of control group were normally fed, while the mice of test group were administered with an aqueous solution of N-acetyl-D-glucosamine having a concentration of 5% by weight in a dosage of 1 ml, wherein 10 mice were administered by intra-peritoneal injection, another 10 mice were administered by intramuscular injection. […] The pathological changes of the mice of control group continuously developed or maintained on the original basis, wherein 4 mice suffered paralysis of the injured limb, and another 4 mice had flex and stretch dysfunction.

Proteus Mirabilis = assay: Promoting wave test (bio-wave model); assay type: cell-based; settings: final concentration 0.5% in LB plate, 37° C., 9 hours
[2] = in vivo
From the text: The toxicological test of the compound of formula (I) includes: • 1. Acute toxicity test: including tests of oral administration, intravenous injection administration, and maximum limit amount for administration; • 2. Ames test; • 3. Micronucleus test of mouse bone marrow cell; • 4. Abnormality test of mouse sperm; • 5. Aberration test of mouse testis chromosome; • 6. Chronic lethal test; • 7. Sub-chronic toxicity (feed for 90 days) test; • 8. Traditional deformity-inducing test.

[3] = tested on: burned voluntary patients; assay: Test for treatment of burn; assay type: in vivo; settings: sterilized powder on wound surface for 3 consecutive days, 10 patients
From the text: In a collaborate project of the bum department of Third Military Medical University, a sterilized N-acetyl-D-glucosamine powder in a dose dependant upon wound surface area was applied to the wound surface of 10 burned voluntary patients for consecutive 3 days.

[4] = tested on: patients with surgical trauma; assay: Test for treatment of surgical trauma; assay type: in vivo; settings: ointment 1 g/10 g in Vaseline, painted on wounds for 3 consecutive days, 8 patients
Protocol: 8 Patients with surgical trauma, and most of them were facial and forearm abrasion. An ointment with a concentration of 1 g/10 g was prepared by mixing N-acetyl-D-glucosamine and Vaseline, and was painted on wounded parts in a dose dependent upon the area of wound surface for consecutive 3 days.

[5] = tested on: patients with cold injury; assay: Test for treatment of cold injury; assay type: in vivo; settings: 10 wt % aqueous solution, local, 1 ml to 10 ml per day
Protocol: 20 Patients with different levels of cold injury were divided into a test group and a control group. The patients in the test group were locally treated with a 10 wt % N-acetyl-D-glucosamine aqueous solution in a dose from 1 ml to 10 ml per day according to symptoms and individual conditions.

[6] = 5% aqueous solution, i.p. or i.m., 20 mice in test group (control: 4 of 10)

Compound: CC(=O)N[C@H]1C(O)O[C@H](CO)[C@@H](O)[C@@H]1O.Cl (stereo partly drawn) [N-acetyl-D-glucosamine hydrochloride]
- rats of the test group that formed scab (burn models): 6

Compound: CC(=O)N[C@H]1C(O)O[C@H](CO)[C@@H](O)[C@@H]1O.O=S(=O)(O)O (stereo partly drawn) [N-acetyl-D-glucosamine sulfate]
- mice that suffered paralysis of the injured limb [1, 6]: 2
- mice with flex and stretch dysfunction [1, 6]: 2

Compound: CC(=O)N[C@H]1C(O)O[C@H](CO)[C@@H](O)[C@@H]1O (stereo partly drawn) [compound of formula (I), N-acetyl-D-glucosamine]
- bio-wave pattern of colony (concentric rings) (Proteus Mirabilis): many fine waves on each ring
- dosage at which acute toxicosis reaction had not appeared [2]: more than 2 g/kg
- rats of the test group that formed scab (burn models): 8
- mice that suffered paralysis of the injured limb [1, 6]: one
- movement of injured limb / mobility of test group ([1]; 5% by weight aqueous solution, intra-peritoneal or intramuscular injection, 20 mice): could free-run
- wound symptoms (edema, blood vessels, secretion) [3]: edema was alleviated, blood vessel shrank, and secretion was reduced
- rate of cambium growth toward the center of the wound ([3]; from the 4th day): 1-2 mm per day
- healing of facial abrasion [4]: rapidly healed
- scar formation [4]: no scar was found on face
- recovery from cold injury [5]: early recovery, and then inflammation and edema were eliminated
